Assay results taken from ChEMBL document CHEMBL3399986, “Rapid 'one-pot' synthesis of a novel benzimidazole-5-carboxylate and its hydrazone derivatives as potential anti-inflammatory and antimicrobial agents” (Bioorg Med Chem Lett, 2015).
Converted amounts (≈) assume the structure as drawn.

Experiments:
[1] = tested on: Rattus norvegicus; assay: Antiinflammatory activity in rat assessed as inhibition of carrageenan-induced paw edema administered 30 mins prior to carrageenan challenge measured after 1 hr relative to control; type: functional
[2] = tested on: Rattus norvegicus; assay: Antiinflammatory activity in rat assessed as inhibition of carrageenan-induced paw edema administered 30 mins prior to carrageenan challenge measured after 2 hrs relative to control; type: functional
[3] = tested on: Rattus norvegicus; assay: Antiinflammatory activity in rat assessed as inhibition of carrageenan-induced paw edema administered 30 mins prior to carrageenan challenge measured after 3 hrs relative to control; type: functional
[4] = tested on: Staphylococcus aureus; assay: Antimicrobial activity against Staphylococcus aureus MTCC 3160 after 24 hrs by broth dilution method; type: functional; conditions: MTCC 3160, 24 h
[5] = tested on: Bacillus subtilis; assay: Antimicrobial activity against Bacillus subtilis MTCC 441 after 24 hrs by broth dilution method; type: functional; conditions: MTCC 441, 24 h
[6] = tested on: Escherichia coli; assay: Antimicrobial activity against Escherichia coli MTCC 4351 after 24 hrs by broth dilution method; type: functional; conditions: MTCC 4351, 24 h
[7] = tested on: Klebsiella pneumoniae; assay: Antimicrobial activity against Klebsiella pneumoniae MTCC 3384 after 24 hrs by broth dilution method; type: functional; conditions: MTCC 3384, 24 h
[8] = tested on: Staphylococcus aureus; assay: Antimicrobial activity against Staphylococcus aureus MTCC 3160 assessed as zone of inhibition at 5 mg/ml after 24 hrs by agar well diffusion method; type: functional; conditions: MTCC 3160, 24 h, read-out: IZ
[9] = tested on: Bacillus subtilis; assay: Antimicrobial activity against Bacillus subtilis MTCC 441 assessed as zone of inhibition at 5 mg/ml after 24 hrs by agar well diffusion method; type: functional; conditions: MTCC 441, 24 h, read-out: IZ
[10] = tested on: Escherichia coli; assay: Antimicrobial activity against Escherichia coli MTCC 4351 assessed as zone of inhibition at 5 mg/ml after 24 hrs by agar well diffusion method; type: functional; conditions: MTCC 4351, 24 h, read-out: IZ
[11] = tested on: Klebsiella pneumoniae; assay: Antimicrobial activity against Klebsiella pneumoniae MTCC 3384 assessed as zone of inhibition at 5 mg/ml after 24 hrs by agar well diffusion method; type: functional; conditions: MTCC 3384, 24 h, read-out: IZ
[12] = tested on: Aspergillus niger; assay: Antifungal activity against Aspergillus niger MTCC 282 after 48 hrs by broth dilution method; type: functional; conditions: MTCC 282, 48 h
[13] = tested on: Candida tropicalis; assay: Antifungal activity against Candida tropicalis MTCC 183 after 48 hrs by broth dilution method; type: functional; conditions: MTCC 183, 48 h
[14] = tested on: Candida albicans; assay: Antifungal activity against Candida albicans MTCC 461 after 48 hrs by broth dilution method; type: functional; conditions: MTCC 461, 48 h
[15] = tested on: Penicillium chrysogenum; assay: Antifungal activity against Penicillium notatum after 48 hrs by broth dilution method; type: functional
[16] = tested on: Aspergillus niger; assay: Antifungal activity against Aspergillus niger MTCC 282 assessed as zone of inhibition at 5 mg/ml after 24 hrs by agar well diffusion method; type: functional; conditions: MTCC 282, 24 h, read-out: IZ
[17] = tested on: Candida tropicalis; assay: Antifungal activity against Candida tropicalis MTCC 183 assessed as zone of inhibition at 5 mg/ml after 24 hrs by agar well diffusion method; type: functional; conditions: MTCC 183, 24 h, read-out: IZ
[18] = tested on: Candida albicans; assay: Antifungal activity against Candida albicans MTCC 461 assessed as zone of inhibition at 5 mg/ml after 24 hrs by agar well diffusion method; type: functional; conditions: MTCC 461, 24 h, read-out: IZ
[19] = tested on: Penicillium chrysogenum; assay: Antifungal activity against Penicillium notatum assessed as zone of inhibition at 5 mg/ml after 24 hrs by agar well diffusion method; type: functional; conditions: read-out: IZ
[20] = tested on: MDA-MB-231; assay: Cytotoxicity against human MDA-MB-231 cells assessed as cell death at 10 ug/ml after 48 hrs by MTT assay; type: cell-based; conditions: mda-mb-231, 48 h
[21] = tested on: MDA-MB-231; assay: Cytotoxicity against human MDA-MB-231 cells assessed as cell death at 5 ug/ml after 48 hrs by MTT assay; type: cell-based; conditions: mda-mb-231, 48 h
[22] = tested on: MDA-MB-231; assay: Cytotoxicity against human MDA-MB-231 cells assessed as cell death at 2.5 ug/ml after 48 hrs by MTT assay; type: cell-based; conditions: mda-mb-231, 48 h
[23] = tested on: MDA-MB-231; assay: Cytotoxicity against human MDA-MB-231 cells assessed as cell death at 1 ug/ml after 48 hrs by MTT assay; type: cell-based; conditions: mda-mb-231, 48 h

Row | Compound | MIC [4] | MIC [5] | MIC [6] | MIC [7] | MIC [12] | MIC [13] | MIC [14] | MIC [15] | inhibition (INH) [1] | inhibition (INH) [2] | inhibition (INH) [3] | zone of inhibition at 5000 µg/mL [8] | zone of inhibition at 5000 µg/mL [9] | zone of inhibition at 5000 µg/mL [10] | zone of inhibition at 5000 µg/mL [11] | zone of inhibition at 5000 µg/mL [16] | zone of inhibition at 5000 µg/mL [17] | zone of inhibition at 5000 µg/mL [18] | zone of inhibition at 5000 µg/mL [19] | Activity [20] | other results
1 | CCCn1c(-c2ccc(Cl)cc2Cl)nc2cc(C(=O)N/N=C/c3cccc(Br)c3)ccc21 | 6.25 µg/mL (≈ 11.8 µM) | 50 µg/mL (≈ 94.3 µM) | 12.5 µg/mL (≈ 23.6 µM) | 25 µg/mL (≈ 47.1 µM) | 3.12 µg/mL (≈ 5.88 µM) | 12.5 µg/mL (≈ 23.6 µM) | 12.5 µg/mL (≈ 23.6 µM) | 25 µg/mL (≈ 47.1 µM) | 65.18% | 58.04% | 72.11% | 18 mm | 12 mm | 18 mm | 17 mm | 22 mm | 16 mm | 16 mm | 15 mm | 7.46% | Activity [21]: -2.12%; Activity [22]: -1.17%; Activity [23]: -12.5%
2 | CCCn1c(-c2ccc(Cl)cc2Cl)nc2cc(C(=O)N/N=C/c3cc(Br)ccc3O)ccc21 | 3.12 µg/mL (≈ 5.71 µM) | 3.12 µg/mL (≈ 5.71 µM) | 3.12 µg/mL (≈ 5.71 µM) | 6.25 µg/mL (≈ 11.4 µM) | 3.12 µg/mL (≈ 5.71 µM) | 6.25 µg/mL (≈ 11.4 µM) | 3.12 µg/mL (≈ 5.71 µM) | 6.25 µg/mL (≈ 11.4 µM) | 44.81% | 47.41% | 45.98% | 22 mm | 22 mm | 22 mm | 20 mm | 22 mm | 18 mm | 21 mm | 18 mm | 4.46% | Activity [21]: 0.07%; Activity [22]: -6.21%; Activity [23]: -6.58%
3 | CCCn1c(-c2ccc(Cl)cc2Cl)nc2cc(C(=O)N/N=C/c3ccccc3)ccc21 | 50 µg/mL (≈ 111 µM) | 25 µg/mL (≈ 55.4 µM) | 12.5 µg/mL (≈ 27.7 µM) | 50 µg/mL (≈ 111 µM) | 25 µg/mL (≈ 55.4 µM) | 50 µg/mL (≈ 111 µM) | 50 µg/mL (≈ 111 µM) | 25 µg/mL (≈ 55.4 µM) | 56.85% | 54.12% | 47.15% | 12 mm | 15 mm | 18 mm | 12 mm | 19 mm | 12 mm | 12 mm | 16 mm | – | –
4 | CCCn1c(-c2ccc(Cl)cc2Cl)nc2cc(C(=O)N/N=C/c3ccc([N+](=O)[O-])cc3)ccc21 | 12.5 µg/mL (≈ 25.2 µM) | 25 µg/mL (≈ 50.4 µM) | 12.5 µg/mL (≈ 25.2 µM) | 25 µg/mL (≈ 50.4 µM) | 6.25 µg/mL (≈ 12.6 µM) | 12.5 µg/mL (≈ 25.2 µM) | 50 µg/mL (≈ 101 µM) | 25 µg/mL (≈ 50.4 µM) | 50% | 50.2% | 46.27% | 17 mm | 16 mm | 18 mm | 17 mm | 20 mm | 16 mm | 13 mm | 13 mm | – | –
5 | CCCn1c(-c2ccc(Cl)cc2Cl)nc2cc(C(=O)N/N=C/c3ccc(Br)cc3)ccc21 | 12.5 µg/mL (≈ 23.6 µM) | 6.25 µg/mL (≈ 11.8 µM) | 3.12 µg/mL (≈ 5.88 µM) | 25 µg/mL (≈ 47.1 µM) | 6.25 µg/mL (≈ 11.8 µM) | 12.5 µg/mL (≈ 23.6 µM) | 25 µg/mL (≈ 47.1 µM) | 50 µg/mL (≈ 94.3 µM) | 65.55% | 69.51% | 69.05% | 17 mm | 19 mm | 22 mm | 17 mm | 20 mm | 16 mm | 15 mm | 14 mm | – | –

More lines, main results first:

Row | MIC [4] | MIC [5] | MIC [6] | MIC [7] | MIC [12] | MIC [13] | MIC [14] | MIC [15] | Compound | inhibition (INH) [1] | inhibition (INH) [2] | inhibition (INH) [3] | zone of inhibition at 5000 µg/mL [8] | zone of inhibition at 5000 µg/mL [9] | zone of inhibition at 5000 µg/mL [10] | zone of inhibition at 5000 µg/mL [11] | zone of inhibition at 5000 µg/mL [16] | zone of inhibition at 5000 µg/mL [17] | zone of inhibition at 5000 µg/mL [18] | zone of inhibition at 5000 µg/mL [19] | Activity [20] | other results
6 | 25 µg/mL (≈ 51.5 µM) | 25 µg/mL (≈ 51.5 µM) | 12.5 µg/mL (≈ 25.7 µM) | 25 µg/mL (≈ 51.5 µM) | 6.25 µg/mL (≈ 12.9 µM) | 6.25 µg/mL (≈ 12.9 µM) | 12.5 µg/mL (≈ 25.7 µM) | 12.5 µg/mL (≈ 25.7 µM) | CCCn1c(-c2ccc(Cl)cc2Cl)nc2cc(C(=O)N/N=C/c3ccccc3Cl)ccc21 | 65.55% | 70.62% | 71.97% | 15 mm | 16 mm | 18 mm | 17 mm | 21 mm | 18 mm | 17 mm | 15 mm | 2.78% | Activity [21]: 1.61%; Activity [22]: -0.44%; Activity [23]: -2.05%
7 | 25 µg/mL (≈ 48.1 µM) | 25 µg/mL (≈ 48.1 µM) | 50 µg/mL (≈ 96.1 µM) | 50 µg/mL (≈ 96.1 µM) | 25 µg/mL (≈ 48.1 µM) | 12.5 µg/mL (≈ 24 µM) | 25 µg/mL (≈ 48.1 µM) | 50 µg/mL (≈ 96.1 µM) | CCCn1c(-c2ccc(Cl)cc2Cl)nc2cc(C(=O)N/N=C/c3ccc(Cl)cc3Cl)ccc21 | 51.29% | 63.63% | 38.39% | 15 mm | 15 mm | 12 mm | 15 mm | 18 mm | 16 mm | 15 mm | 12 mm | – | –
8 | 12.5 µg/mL (≈ 24 µM) | 25 µg/mL (≈ 48.1 µM) | 12.5 µg/mL (≈ 24 µM) | 12.5 µg/mL (≈ 24 µM) | 6.25 µg/mL (≈ 12 µM) | 25 µg/mL (≈ 48.1 µM) | 12.5 µg/mL (≈ 24 µM) | 50 µg/mL (≈ 96.1 µM) | CCCn1c(-c2ccc(Cl)cc2Cl)nc2cc(C(=O)N/N=C/c3cccc(Cl)c3Cl)ccc21 | 53.14% | 49.65% | 45.1% | 17 mm | 15 mm | 18 mm | 18 mm | 20 mm | 16 mm | 16 mm | 12 mm | – | –
9 | 50 µg/mL (≈ 103 µM) | 12.5 µg/mL (≈ 25.7 µM) | 50 µg/mL (≈ 103 µM) | 25 µg/mL (≈ 51.5 µM) | 25 µg/mL (≈ 51.5 µM) | 50 µg/mL (≈ 103 µM) | 12.5 µg/mL (≈ 25.7 µM) | 25 µg/mL (≈ 51.5 µM) | CCCn1c(-c2ccc(Cl)cc2Cl)nc2cc(C(=O)N/N=C/c3ccc(Cl)cc3)ccc21 | 56.85% | 53.56% | 46.56% | 12 mm | 18 mm | 10 mm | 17 mm | 17 mm | 14 mm | 17 mm | 13 mm | – | –
